# Read-outs that look alike come from different tables or passages of the source.
# Columns and labels:
# [1] = tested on: IL-2, IL-4, IL-10 and IgE; assay: ELISA of cytokines and IgE in infected mice; assay type: in vivo; conditions: infected BALB/c mice, 6 weeks oral treatment
# Protocol: (§1) In vitro-grown metacestode vesicles were pressed through a 500 µm mesh and washed three times with sterile PBS. The parasite tissue was then taken up in an equal volume of sterile PBS. Each mouse was intraperitoneally injected with 200 μl suspension. Seven mice were injected with 200 μl PBS as the control group. Twenty-eight infected mice were randomly distributed into four groups (7 mice/group): the untreated group was not administered any drug; the ABZ group was treated with ABZ orally (100 mg/kg/day); and the Thia15 group and Thia30 group received thiacloprid orally (15 mg/kg/day and 30 mg/kg/day). Treatments of mice started 2 weeks post-infection, and treatments were administered daily for 6 weeks. After 6 weeks of treatment, whole blood via the orbital sinus was collected from mice and the animals were euthanized by CO2. Blood samples were incubated at 37 °C for 1 h and centrifuged at 3500 rpm for 10 min at 4 °C. The serum was harvested and stored at –20 °C for IL-2, IL-4, IL-10 and IgE detection. All metacestode tissues were collected, and the total wet weight of metacestodes per mice was determined. Furthermore, the content of cytokines in microcyst fluid was detected by enzyme-linked immunosorbent assay (ELISA). Several metacestode tissue specimens were processed for transmission electron microscopy (TEM) and histopathological experiments.
# ELISA was employed to detect serum IL-2, IL-4, IL-10 and IgE following the manufacturer's instructions. Mouse collagen I and collagen III ELISA kits were used to measure the levels of collagen I and collagen III in the cell culture supernatant after intervention with thiacloprid. All ELISA kits were provided by Elabscience Biotechnology Co., Ltd., Wuhan, China. The OD value at 450 nm was read with a Tecan Infinite M200 PRO enzyme reader (Männedorf, Switzerland), and the concentration was calculated according to the standard curve.
# [2] = tested on: E. multilocularis metacestodes; assay: In vivo treatment of mice experimentally infected with E. multilocularis metacestodes; set-up: species or system Echinococcus multilocularis
# Protocol: as §1
# Tissues from experimental animals were washed in PBS and fixed in 4% paraformaldehyde at room temperature for […]. On the next day, they were dehydrated, embedded, and sliced into 5-μm sections. After dewaxing and dehydrating, sections were stained with hematoxylin for 2–5 min, and re-stained with eosin for 15 s. They were sealed with neutral gum and observed under a BX51 microscope (Olympus, Tokyo, Japan).
# A Periodic Acid Schiff Stain Kit (Solarbio, Beijing, China) was used to show the PAS-positive laminated layer characteristic of E. multilocularis metacestodes. The section (5 μm) was dewaxed in xylene and rehydrated in 100%, 95%, 80%, and 75% alcohol baths. Staining was then carried out according to the kit instructions.
# [3] = tested on: collagen I and III, MMP1, MMP3, MMP9, MMP13; assay: Collagen and MMP expression in the host-lesion microenvironment (TEM, Sirius red, qPCR, western blot); assay type: in vivo; conditions: infected BALB/c mice, 6 weeks oral treatment
# Protocol: The metacestodes were fixed with 4% paraformaldehyde and embedded in paraffin to make sections with a thickness of […]. The sections were dewaxed with water, stained with Picrosirius red for 10 min, rinsed and dehydrated with anhydrous ethanol, and sealed with neutral balsam after the xylene was transparent. Each section of 400× visual field image was randomly collected. The ratio of the area of all images collected to the area of the visual field was measured using the ImageJ analysis system, and the percentage of collagen fibre was calculated.
# The variations in the microstructure of the protoscoleces or metacestodes were observed under an electron microscope. […] They were washed twice in PBS and then fixed for 3 h with 2.5% glutaraldehyde (pH = 7.2); next, they underwent 2 h post-fixation in 2% OsO4 (SPI-CHEM, West Chester, PA, USA). Subsequently, the samples were washed in double-distilled water and treated with 1% uranyl acetate for 25 min. After the samples were washed again in double-distilled water, dehydration was conducted in ethanol at continuous gradients (30–50–70–80–90–95–100%) over a period of 10 min. For SEM analysis, the dehydrated samples were dipped into hexamethyldisiloxane and then air-dried in a fume hood. The sample was observed under a Hitachi SU8100 scanning electron microscope (Tokyo, Japan) after gold spraying. For TEM analysis, the dehydrated samples passed through a dehydrating agent, and an epoxy resin (SPI-CHEM) permeated and polymerized at 60 °C overnight. A 50-nm ultra-thin section was prepared and then loaded on a 300-mesh copper grid. It was stained with uranyl acetate and lead citrate (SPI-CHEM). The sample was observed under a Hitachi HT7700 transmission electron microscope. To reduce the bias, electron microscopy was observed by professionals in the case of an unknown group.
# Total RNA was extracted with TRIzol Reagent (Thermo Fisher Scientific, Waltham, MA, USA) according to the manufacturer’s instructions. The purity and concentrations of RNA were quantified using NanoDrop 2000 absorbance measurements at 260/280 nm. Total RNA was converted into cDNA sequences using the FastKing gDNA Dispelling RT SuperMix Kit (TIANGEN Biotech), and RT-qPCR was performed using the RealUniversal Color PreMix Kit (TIANGEN Biotech) on an ABI QuantStudio 5 system (Applied Biosystems, Waltham, MA, USA). The specific primers are shown in Additional file 4: Table S1. The PCR cycling conditions were as follows: pre-denaturation at 95 °C for 15 min followed by 40 cycles at 95 °C for 10 s and 60 °C for 34 s. The relative mRNA expression levels were quantified using the 2^−ΔΔCT method. RPS18 served as an internal control.
# A total protein extraction kit (Solarbio) was used to extract cell or tissue total protein. The protein concentration was determined by the protein quantitative assay kit (Thermo Fisher Scientific). Then, electrophoresis was performed with 20–50 μg of protein sample. The protein was separated by sodium dodecyl sulfate polyacrylamide gel electrophoresis (SDS-PAGE) and transferred to a 0.22 μm PVDF membrane (Merck Millipore, Darmstadt, Germany). The PVDF membrane was blocked with 5% of nonfat powdered milk in Tris-buffered saline Tween 20 (TBST) for 1 h at room temperature. The membrane incubation with primary antibodies was performed at 4 °C overnight. The antibody information is listed in Additional file 5: Table S2. The membrane was washed with TBST and incubated with HRP-labeled secondary antibodies (1:5000, Abclonal, Wuhan, China) for 1 h at room temperature. Blotted membranes were visualized using enhanced chemiluminescence reagents (Thermo Fisher Scientific). Protein expression was depicted as the intensity of each protein relative to that of β-actin using ImageJ software.
# [4] = tested on: acetylcholinesterase; assay: Acetylcholinesterase activity (Ellman) in extracts of protoscoleces, metacestodes and germinal cells; assay type: biochemical, Echinococcus multilocularis; conditions: extract; thiacloprid 5 μM, 37 °C 10 min; BW284c51 positive control
# Protocol: The effects of thiacloprid on the acetylcholinesterase activity of E. multilocularis protoscoleces, metacestodes and germinal cells were determined according to a previously described method. The protoscoleces, metacestode and germinal cells were washed twice with PBS and homogenized with an electric homogenizer in precooled PBS. Centrifugation of the homogenates was performed at 100,000×g for 30 min. The protein concentration of the supernatant was determined by the modified Lowry method according to the instructions, and the concentration was adjusted to 2 mg/ml. Thiacloprid (5 μM) was added to the extract and incubated at 37 °C for 10 min. The extract was supplemented with 0.1% DMSO as control. Subsequently, acetylcholinesterase activity was assessed according to Ellman’s procedure using a microplate with 260 µl of 0.1 M PBS buffer pH 8.0, 10 µl of 10 mM dithiobisnitrobenzoic acid solution, 2.5 µl of 75 mM substrate (acetylthiocholine iodide) and 25 µl of the sample treated with thiacloprid. The OD increment was measured at 412 nm using an Infinite M200 PRO reader (Tecan). Each experiment was conducted three times. BW284c51 (CAS number: 402-40-4, Sigma) was used as a positive control.
# [5] = tested on: E. multilocularis metacestodes; assay: PGI assay (phosphoglucose isomerase release) on metacestode vesicles; assay type: cell-based, Echinococcus multilocularis; conditions: Echinococcus multilocularis, 120 h, read-out: EC50 against E. multilocularis metacestode by the PGI assay
# Protocol: The efficacy of thiacloprid against the E. multilocularis metacestode was evaluated by applying a phosphoglucose isomerase (PGI) assay that measures the release of the enzyme phosphoglucose isomerase upon physical impairment of metacestodes. In brief, medium without phenol red (DMEM, 1% penicillin/streptomycin sulfate, 2 mM L-glutamine) was added to the same volume of vesicles and distributed to 48-well (12–15 per vesicles) plates. Subsequently, metacestodes were incubated for 5 days with different concentrations (0, 0.06, 1.2, 2.5, 5, 10, 20, 40, 80 and 160 μM) of thiacloprid or praziquantel (PZQ), after which PGI release was quantified exactly as described in Stadelmann et al.. Triton X-100 (0.1% in PBS) was applied as a positive control (maximal release of vesicle fluid). Each condition was tested in biological triplicate. After 5 days of incubation, 200 μl medium supernatant was collected from each well and stored at − 20 °C until further measurements were performed. PGI measurements were performed as described earlier, except that an Infinite M200 PRO reader (Tecan, Männedorf, Switzerland) was used to measure the increase in absorbance at 340 nm. PGI activity was calculated using the EC50 calculator (https://www.aatbio.com/tools/ec50-calculator) from the linear regression of the enzyme reaction over time and presented as a percentage relative to the values obtained by treatment of vesicles with 0.1% Triton X-100.
# [6] = tested on: Human foreskin fibroblasts (HFF); assay: alamarBlue cytotoxicity assay, HFF; assay type: cell-based; conditions: Fibroblast, 120 h, 5 days
# Protocol: (§2) An alamarBlue assay was used to assess the toxicity of thiacloprid to confluent and pre-confluent mammalian cells in vitro [29]. Human foreskin fibroblasts (HFF, Procell) and rat hepatoma cells (RH, Procell) were seeded into 96-well cell culture plates in DMEM supplemented with 10% FBS and 1% penicillin–streptomycin at 37 °C and 5% CO2. For detecting the growth inhibitory effects of confluent cells, HFF and RH cells were seeded at 10,000 cells per well and 50,000 cells per well, respectively. After overnight culture, thiacloprid or PZQ was added and diluted in serial concentrations (0, 0.6, 1.2, 2.5, 5, 10, 20, 40, 80 and 160 μM). For detecting growth inhibitory effects on proliferating cells, cells were seeded at 1000 (HFF) and 5000 (RH) cells per well. Thiacloprid was added after 5 h of cell attachment. To measure the viability of the cells after treatment for 5 days, the alamarBlue assay was employed and viability calculated as described previously.
# [7] = tested on: Reuber rat hepatoma (RH) cells; assay: alamarBlue cytotoxicity assay, RH cells; assay type: cell-based; conditions: 120 h, 5 days
# Protocol: as §2
# [8] = tested on: E. multilocularis germinal cells; assay: CellTiter-Glo viability assay on germinal cells; assay type: cell-based, Echinococcus multilocularis; conditions: Echinococcus multilocularis, 120 h; 5 days; CellTiter-Glo; read-out: IC50 against germinal cells
# Protocol: To evaluate the activity of thiacloprid against parasitic stem cells, germinal cells from in vitro metacestode vesicles were investigated as described by Spiliotis et al.. Briefly, 20 units of cells were distributed into a black 384-well plate. Different concentrations of thiacloprid or PZQ (0, 0.06, 1.2, 2.5, 5, 10, 20, 40, 80 and 160 μM) were added to the cells. After culture at 37 °C for 5 days under a humid nitrogen atmosphere, 25 μl CellTiter-Glo containing 1% Triton X-100 was added. The plates were incubated at room temperature in the dark for 15 min. After the total destruction of the cellular aggregates, luminescence was measured using an Infinite M200 PRO reader (Tecan), and 0 μM values were set to 100% viability. The IC50 values were calculated using an online IC50 calculator after logit-log transformation. Four independent replicates were conducted.
structure (smiles),measurement,setting,value
"CCCSc1ccc2nc(NC(=O)OC)[nH]c2c1 [ABZ, albendazole]","Expression of IL-2, IL-4 and IL-10 in serum compared with the untreated group",[1],consistent variations
same,Expression of IgE in serum compared with the untreated group,[1],consistent variations
same,HE staining of metacestodes from treated mice,"[2]; 6 weeks oral treatment, thiacloprid 15 or 30 mg/kg/day, ABZ 100 mg/kg/day",germinal cells could still be observed
same,Wet weight of the metacestodes,"[2]; infected BALB/c mice, ABZ 100 mg/kg/day orally, 6 weeks, untreated 6.49 ± 1.18 g",1.85 ± 0.94 g
same,Collagen fiber deposition in the host-lesion microenvironment (TEM),[3],can promote
same,"mRNA expression of MMP1, MMP3, MMP9 and MMP13 in the microenvironment",[3]; qPCR,significantly inhibited
same,mRNA and protein expression levels of collagen I and III in the host-lesion microenvironment,"[3]; qPCR, western blot",increased
same,"Protein expression levels of MMP1, MMP3, MMP9 and MMP13",[3]; western blot,decreased
C=CC[N+](C)(C)c1ccc(CCC(=O)CCc2ccc([N+](C)(C)CC=C)cc2)cc1.[Br-].[Br-] [BW284c51],"Acetylcholinesterase activity in protoscoleces, metacestode vesicles and germinal cells",[4],inhibited
"O=C(C1CCCCC1)N1CC(=O)N2CCc3ccccc3C2C1 (stereo not drawn) [PZQ, praziquantel]",EC50,[5],7.41 ± 2.09 µM
same,IC50,"[6]; confluent cells, read-out: IC50 on confluent HFF",53.2 ± 11.1 µM
same,IC50,"[6]; pre-confluent cells, read-out: IC50 on pre-confluent HFF",6.71 ± 1.88 µM
same,IC50,"[7]; confluent cells, read-out: IC50 on confluent RH cells",25.3 ± 6.32 µM
same,IC50,"[7]; pre-confluent cells, read-out: IC50 on pre-confluent RH cells",11.6 ± 3.52 µM
same,IC50,[8],2.59 ± 0.33 µM

# Reference: PMC8419995, “In vitro and in vivo efficacy of thiacloprid against Echinococcus multilocularis” (Parasites & Vectors, 2021)
